Results on 44 compounds are retold here after PMC11154582, “Modeling the Blood-Brain Barrier Permeability of Potential Heterocyclic Drugs via Biomimetic IAM Chromatography Technique Combined with QSAR Methodology” (Molecules, 2024).

Where two headings read alike, the source gives them in different places.

Data set [1] in a line: Biomimetic IAM chromatography (log kw, IAM). In kind it is physicochemical. The following applies: IAM.PC.DD2 column, buffered acetonitrile, pH 7.4, 25 °C, extrapolated to buffer. As to the method:
High performance liquid chromatography (HPLC) measurements were performed on a Shimadzu Vp liquid chromatographic system (Shimadzu, Izabelin, Poland). This instrument was equipped with LC 10AT pump, SPD 10A ultraviolet-visible detector, SCL 10A system controller, CTO-10 AS chromatographic oven, and a Rheodyne injector valve with a 20 μL loop. As the stationary phase Regis IAM.PC.DD2 column, 100 × 4.6 mm i.d., 10 μm (Morton Grove, IL, USA) was applied.
Buffered acetonitrile mixtures were used as effluents. Acetonitrile concentration, expressed as a volume fraction, was varied within a range from 0.2 to 0.5, with a constant step of 0.1. The buffer was prepared from 0.01 mol L^−1 solutions of Na2HPO4 and citric acid, and a pH value of 7.4 was fixed before mixing with an organic modifier. The flow rate was 1.3 mL min^−1. Each compound sample was dissolved in acetonitrile to obtain a concentration of 0.005 mg mL^−1, and each solute peak was detected under ultraviolet light at a wavelength of λmax = 254 nm. Each measurement was performed at a constant temperature (25 °C) at least three times. The dead time values were measured from sodium chloride peaks.
From among 126 heterocyclic compounds evaluated in this work (Table 1), 89 structures have been investigated previously on the IAM column: these are molecules from groups III, IV, V, VI, VII, VIII, IX, XI, XIII, and XV [21, 22, 23]. The remaining ones, i.e., 37 compounds from groups I, II, X, XII and XIV, were tested in this study for the first time using the biomimetic IAM chromatographic technique. To calculate the log kw values (i.e., the logarithms of retention parameter in the buffer as the mobile phase), the retention parameters, logs k (k = (tr − t0)/t0; where tr is the solute retention time, and t0 is a dead time), that were measured for all tested compounds, were used according to Soczewiński-Wachtmeister’s equation (Equation (5)): (5) log k=logtr−t0/t0=log kw−sφ where φ denotes the volume fraction of acetonitrile as organic modifier in the mobile phase, and kw means the retention parameter corresponding to buffer as the mobile phase. The log kw values were evaluated as linear regression coefficients (Table 2).

Data set [2] relates to human cancer cells. Further details: method as in ref [3,9,10,13,18-21] (a number printed in a supplementary file, which may have a reference list of its own: not looked up in the article's list). The following applies: supplement ref [3,9,10,13,18-21]; cited from earlier work.
On the set-up of data set [3]: method as in ref [8,16] (a number printed in a supplementary file, which may have a reference list of its own: not looked up in the article's list). The following applies: supplement ref [8,16]; cited from earlier work.
The subject of data set [4] is central nervous system of mice. More on the design: method as in PMID 24157086. The following applies: preliminary tests, ref [21]; cited from earlier work.
For data set [5] the following is noted: IAM column, cited from earlier work.
Data set [6] concerns human cancer cells. Further details: method as in ref [3-7,9-15,17-21] (a number printed in a supplementary file, which may have a reference list of its own: not looked up in the article's list). The following applies: supplement ref [3-7,9-15,17-21]; cited from earlier work.
Details of data set [7]: method as in ref [21,22] (a number printed in a supplementary file, which may have a reference list of its own: not looked up in the article's list). The following applies: supplement ref [21,22]; cited from earlier work.

As to `O=c1c(-c2cccs2)nnc2n1CCN2c1ccc(Cl)c(Cl)c1` [Compound 80], the “log kw, IAM” value in data set [1] was 2.68. Moreover, in the data set with human cancer cells [2], the “mechanism of antiproliferative action: promoting apoptosis” value (from here on “mechanism … promoting apoptosis”) is “apoptosis” and the “mechanism of antiproliferative action: promoting necrosis” value (from here on “mechanism … promoting necrosis”) is “necrosis”.
Take `O=c1c(Cc2ccccc2Cl)nnc2n1CCN2c1ccccc1` [Compound 103]: the analgesic activity entry in data set [3] is on record as “analgesic”. In data set [4], the analgesic activity result is reported as “analgesic activity” and the toxicity result was “low toxicity”. Moreover, the “log kw, IAM” value in data set [5] (ref [23]) is reported as 2.34.
Take `CC(C)c1nnc2n(c1=O)CCN2c1ccc(Cl)cc1` [Compound 33]: the “mechanism of antiproliferative action: promoting apoptotic caspases” value (“mechanism … promoting apoptotic caspases” for short) with human cancer cells [2] is listed as “promoting apoptotic caspases”. Also, in data set [5] (ref [22]), the “log kw, IAM” value was 1.39.
Turning to `COC(=O)Cc1nnc2n(c1=O)CCN2c1ccc(C)cc1` [Compound 41], the analgesic activity result in data set [3] is recorded as “analgesic”. In addition, the “log kw, IAM” value in data set [5] (ref [23]) was 1.33.
For `CCOc1ccc(N2CCn3c2nnc(Cc2ccccc2)c3=O)cc1` [Compound 112], the analgesic activity result in data set [3] is “analgesic”. Also, the “log kw, IAM” value in data set [5] (ref [23]) is 2.11.
As to `CCOC(=O)c1nnc2n(c1=O)CCN2c1cccc(Cl)c1` [Compound 37], the antitumor activity entry with human cancer cells [6] is “antitumor”. Also, in data set [5] (ref [22]), the “log kw, IAM” value is listed as 1.73.
For the compound `CCOc1ccc(N2CCn3c2nnc(Cc2ccc(Cl)cc2)c3=O)cc1` [Compound 116], in data set [4], the analgesic activity result is recorded as “analgesic activity” and the toxicity result is reported as “low toxicity”. For the same compound, the antitumor activity result with human cancer cells [6] was “antitumor”. Also, in data set [5] (ref [23]), the “log kw, IAM” value is given as 2.72.
For `NNC(=O)c1nnc2n(c1=O)CCN2c1ccccc1` [Compound 51], the analgesic activity result in data set [3] was “analgesic”. For the same compound, the “log kw, IAM” value in data set [5] (ref [21]) is reported as −0.14.
As to `O=c1c(-c2ccc([N+](=O)[O-])cc2)nnc2n1CCN2c1ccccc1Cl` [Compound 98], in data set [1], the “log kw, IAM” value is on record as 2.16.
Regarding `Cc1ccc(N2CCn3c2nnc(CC(=O)NN)c3=O)cc1` [Compound 57], in data set [1], the “log kw, IAM” value is recorded as 0.13.
Same read-out and setting: as for `Clc1cccc(N2CCn3cnnc32)c1` [Compound 4], the figure is 0.64.
As for `Cc1cc(Cl)ccc1OCc1nnc2n1CCN2c1ccccc1` [Compound 8], the “log kw, IAM” value in data set [1] was 0.09. For the same compound, the “mechanism of antiproliferative action: inducing DNA damage” value in the data set with human cancer cells [2] is given as “DNA damage”.
Turning to `COc1ccc(N2CCn3c(COc4ccc(Cl)cc4)nnc32)cc1` [Compound 7], the “log kw, IAM” value in data set [1] is given as 0.06.
Same read-out and setting: the figure for `O=c1c(-c2ccc([N+](=O)[O-])cc2)nnc2n1CCN2c1ccc(Cl)c(Cl)c1` [Compound 101] is 3.22; for `O=c1c(-c2ccc([N+](=O)[O-])cc2)nnc2n1CCN2c1ccccc1` [Compound 93] it is 1.92.
In the case of `NNC(=O)c1nnc2n(c1=O)CCN2c1ccc(Cl)c(Cl)c1` [Compound 55], the antiradical activity result in data set [7] is given as “antiradical”. For the same compound, the “log kw, IAM” value in data set [5] (ref [21]) was 0.69.
Take `O=c1c(-c2cccs2)nnc2n1CCN2c1cccc(Cl)c1` [Compound 78]: the “log kw, IAM” value in data set [1] is given as 2.26.
As to `COc1ccccc1N1CCn2c1nnc(C(F)(F)F)c2=O` [Compound 18], the “mechanism … promoting apoptotic caspases” value in the data set on human cancer cells [2] is given as “promoting apoptotic caspases”. The “log kw, IAM” value in data set [5] (ref [22]) is reported as 0.67.
Take `O=c1c(-c2ccccc2)nnc2n1CCN2c1ccc(Cl)cc1` [Compound 91]: in data set [3], the analgesic activity entry is reported as “analgesic”. The “log kw, IAM” value in data set [5] (ref [23]) was 2.57.
As for `CCOC(=O)Cc1nnc2n(c1=O)CCN2c1cccc(Cl)c1` [Compound 48], in the data set on human cancer cells [2], the “mechanism … promoting apoptosis” value is “apoptosis” and the “mechanism … promoting necrosis” value is listed as “necrosis”. In addition, the “log kw, IAM” value in data set [5] (ref [23]) is 2.05.
Regarding `Clc1ccc(OCc2nnc3n2CCN3c2ccc(Cl)cc2)cc1` [Compound 10], the “log kw, IAM” value in data set [1] was 1.86.
On the same count and under the same terms, as for `c1ccc(OCc2nnc3n2CCN3c2ccccc2)cc1` [Compound 6], the figure is 0.11.
On the same count and under the same terms, the figure for `Clc1ccc(N2CCn3c(COc4ccc(Cl)cc4Cl)nnc32)cc1` [Compound 12] is 2.25.
The same measure, in the same setting: the figure for `Cc1cc(Cl)ccc1OCc1nnc2n1CCN2c1ccc(Cl)cc1` [Compound 11] is 2.14.
As for `CC(C)c1nnc2n(c1=O)CCN2c1ccc(Cl)c(Cl)c1` [Compound 34], the “mechanism … promoting apoptotic caspases” value in the data set with human cancer cells [2] is “promoting apoptotic caspases”. Besides, the “log kw, IAM” value in data set [5] (ref [22]) is listed as 1.67.
`c1ccc(N2CCn3cnnc32)cc1` [Compound 1]: the “log kw, IAM” value in data set [1] is on record as 0.10.
Consider `O=c1c(C(F)(F)F)nnc2n1CCN2c1ccccc1Cl` [Compound 19], for which, in the data set on human cancer cells [2], the “mechanism … promoting apoptotic caspases” value is on record as “promoting apoptotic caspases”. Also, the “log kw, IAM” value in data set [5] (ref [22]) was 0.88.
`Cc1cccc(N2CCn3c2nnc(-c2ccc([N+](=O)[O-])cc2)c3=O)c1C` [Compound 97]: in data set [1], the “log kw, IAM” value is reported as 1.78.
Take `CCOc1ccc(N2CCn3c2nnc(Cc2ccccc2Cl)c3=O)cc1` [Compound 114]: the analgesic activity result in data set [3] is on record as “analgesic”. Also, in data set [4], the analgesic activity entry was “analgesic activity” and the toxicity entry is “low toxicity”. In addition, in the data set with human cancer cells [6], the antitumor activity result is recorded as “antitumor”. The “log kw, IAM” value in data set [5] (ref [23]) is recorded as 2.51.
As to `CC(C)c1nnc2n(c1=O)CCN2c1ccccc1Cl` [Compound 31], in the data set on human cancer cells [2], the “mechanism … promoting apoptotic caspases” value is given as “promoting apoptotic caspases”. For the same compound, the “log kw, IAM” value in data set [5] (ref [22]) is on record as 0.65.
Consider `Cc1cccc(N2CCn3c2nnc(-c2cccs2)c3=O)c1C` [Compound 75], for which the “log kw, IAM” value in data set [1] is recorded as 1.17.
For `COC(=O)Cc1nnc2n(c1=O)CCN2c1ccc(OC)cc1` [Compound 42], the analgesic activity entry in data set [3] is on record as “analgesic”. Further, the “log kw, IAM” value in data set [5] (ref [23]) is reported as 0.81.
For the compound `CCOC(=O)c1nnc2n(c1=O)CCN2c1ccc(Cl)c(Cl)c1` [Compound 39], the antitumor activity result in the data set on human cancer cells [6] is “antitumor”. In data set [5] (ref [22]), the “log kw, IAM” value is 3.36.
In the case of `Cc1ccc(N2CCn3cnnc32)cc1` [Compound 2], the “log kw, IAM” value in data set [1] is on record as 0.41.
Still for that read-out and setting: the figure for `NNC(=O)Cc1nnc2n(c1=O)CCN2c1ccc(Cl)cc1` [Compound 60] is 0.32; for `Cc1ccccc1N1CCn2c1nnc(-c1ccc([N+](=O)[O-])cc1)c2=O` [Compound 94] it is 2.52; for `COc1ccccc1N1CCn2c1nnc(-c1cccs1)c2=O` [Compound 76] it is 1.50.
Consider `CCOC(=O)Cc1nnc2n(c1=O)CCN2c1ccc(Cl)c(Cl)c1` [Compound 50], for which, in the data set with human cancer cells [2], the “mechanism … promoting apoptosis” value is “apoptosis” and the “mechanism … promoting necrosis” value is recorded as “necrosis”. The “log kw, IAM” value in data set [5] (ref [23]) is reported as 2.42.
For `Cc1ccc(N2CCn3c2nnc(-c2cccs2)c3=O)cc1` [Compound 74], the “log kw, IAM” value in data set [1] was 1.94.
In the case of `NNC(=O)c1nnc2n(c1=O)CCN2c1cccc(Cl)c1` [Compound 54], in the data set on human cancer cells [2], the “mechanism of antiproliferative action: inducing DNA damage” value is “DNA damage” and the “mechanism … promoting apoptosis” value is “apoptosis”. For the same compound, the antitumor activity entry with human cancer cells [6] is recorded as “antitumor”. Besides, in data set [5] (ref [21]), the “log kw, IAM” value is 0.41.
`Cc1ccc(N2CCn3c2nnc(Cc2ccccc2Cl)c3=O)cc1` [Compound 109]: the analgesic activity result in data set [3] was “analgesic”; in data set [4] it was “analgesic activity”. Moreover, the toxicity entry in data set [4] is listed as “low toxicity”. In addition, the antitumor activity result with human cancer cells [6] was “antitumor”. For the same compound, the “log kw, IAM” value in data set [5] (ref [23]) is given as 2.65.
In the case of `Clc1ccc(N2CCn3cnnc32)cc1Cl` [Compound 5], the “log kw, IAM” value in data set [1] is given as 1.18.
In the case of `CCOC(=O)Cc1nnc2n(c1=O)CCN2c1ccccc1` [Compound 45], in the data set with human cancer cells [2], the “mechanism … promoting apoptosis” value is “apoptosis” and the “mechanism … promoting necrosis” value was “necrosis”. Also, in data set [5] (ref [23]), the “log kw, IAM” value is on record as 1.21.
As to `Clc1ccc(N2CCn3c(COc4cc(Cl)c(Cl)cc4Cl)nnc32)cc1` [Compound 14], the “log kw, IAM” value in data set [1] is on record as 2.55.
